According to patent US20250353873A1, “COMPOUNDS AND METHODS FOR MODULATING APOE EXPRESSION” (Ionis Pharmaceuticals, Inc., priority 2024, published 2025):
Strand notation (5' to 3'): a small letter for the sugar, then the base; units joined by * are phosphorothioate-linked, units joined directly phosphodiester-linked; [ ] holds rarer units or linkages, { } end groups; capitals alone tell only the bases. [ms] = mesyl phosphoramidate linkage; e = 2'-O-(2-methoxyethyl) (MOE); k = constrained ethyl (cEt); [5mC] = 5-methylcytosine; d = 2'-deoxy (DNA)

How the values were obtained:
human APOE RNA [1] = assay: Dose-dependent reduction of human APOE RNA in HepG2 cells, electroporation, 20,000 cells per well, average of GAPDH- and PPIA-normalized results (Example 4, Table 12); type: cell-based; conditions: HepG2, 20,000 cells per well; for IC50: approximately 24 hours
Experimental: HepG2 cells plated at a density of 20,000 cells per well were treated by electroporation with various concentrations of modified oligonucleotide as specified in the tables below. […] APOE RNA levels were measured using the human primer probe set RTS3073 (described herein above). APOE RNA levels were normalized to human GAPDH, and human PPIA. Human GAPDH was amplified using human primer probe set RTS104 (described herein above). Human PPIA was amplified using human primer probe set mk_cycloA_2nd (described herein above) The average of the GAPDH-normalized results and the PPIA-normalized results are presented in the table below as percent APOE RNA, relative to the amount of APOE RNA in untreated control cells (% UTC). The half maximal inhibitory concentration (IC50) of each modified oligonucleotide was calculated in GraphPad Prism 10 (GraphPad Software, San Diego, CA) and is also presented in the table below.

human APOE RNA [2] = assay: Activity in APOE C57BL/6NTac-Apoeem7250 knock-in mice, single ICV bolus, 4 weeks (Example 10); type: in vivo; conditions: single ICV bolus 300 μg, 4 weeks post treatment, normalized to mouse Ppia
Summary of the method: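 Knock-in mice (2–4 per group) received one 300 μg ICV bolus of oligonucleotide or PBS. After four weeks, human APOE RNA in cortex and spinal cord measured by RT-qPCR (primer probe set RTS3073), normalized to mouse Ppia, expressed as % of PBS controls.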

human APOE RNA [3] = assay: Activity in APOE C57BL/6NTac-Apoeem7250 knock-in mice, single ICV bolus, 8 weeks (Example 11); type: in vivo; conditions: for APOE RNA (% control) Cortex / APOE RNA (% control) Spinal Cord: single ICV bolus 300 μg, 8 weeks post treatment, normalized to mouse Ppia
Summary of the method: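 Human APOE knock-in C57BL/6NTac mice given one ICV bolus of 300 μg oligonucleotide; PBS-dosed group as control. At 8 weeks, cortex and spinal cord RNA measured by qRT-PCR (human probe RTS3073), normalized to mouse Ppia, expressed as % of PBS control.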

human APOE RNA [4] = assay: Dose-dependent inhibition of human APOE RNA in differentiated SH-SY5Y cells, free uptake, 5 days (Example 5); type: cell-based
Experimental: Modified oligonucleotides selected from the examples above were tested at various doses in differentiated SH-SY5Y cells. The modified oligonucleotides were tested in a series of experiments that had the same culture conditions.
Differentiated SH-SY5Y cells plated at a density of 10,000 cells per well were treated by free uptake with various concentrations of modified oligonucleotide as specified in the tables below. […] APOE RNA levels were measured using the human primer probe set RTS3073 (described herein above). APOE RNA levels were normalized to human PPIA. Human PPIA was amplified using human primer probe set mk_cycloA_2nd (described herein above). Results are presented as percent APOE RNA, relative to the amount of APOE RNA in untreated control cells (% UTC). The half maximal inhibitory concentration (IC50) of each modified oligonucleotide was calculated in GraphPad Prism 10 (GraphPad Software, San Diego, CA) and is also presented in the tables below.

Substance | APOE RNA (% UTC) (human APOE RNA [1]; 5 nM) | APOE RNA (% UTC) (human APOE RNA [1]; 13 nM) | APOE RNA (% UTC) (human APOE RNA [1]; 33 nM) | APOE RNA (% UTC) (human APOE RNA [1]; 82 nM) | APOE RNA (% UTC) (human APOE RNA [1]; 205 nM) | APOE RNA (% UTC) (human APOE RNA [1]; 512 nM) | APOE RNA (% UTC) (human APOE RNA [1]; 1,280 nM) | APOE RNA (% UTC) (human APOE RNA [1]; 3,200 nM) | APOE RNA (% UTC) (human APOE RNA [1]; 8,000 nM) | APOE RNA (% UTC) (human APOE RNA [1]; 20,000 nM) | IC50 (human APOE RNA [1]) [nM] | APOE RNA (% control) Cortex (human APOE RNA [2]) [% control] | APOE RNA (% control) Spinal Cord (human APOE RNA [2]) [% control] | APOE RNA (% control) Cortex (human APOE RNA [3]) [% control] | APOE RNA (% control) Spinal Cord (human APOE RNA [3]) [% control] | APOE RNA (% UTC) (human APOE RNA [4]; 5 nM, 5 days (Table 14)) | APOE RNA (% UTC) (human APOE RNA [4]; 13 nM, 5 days (Table 14)) | APOE RNA (% UTC) (human APOE RNA [4]; 33 nM, 5 days (Table 14)) | APOE RNA (% UTC) (human APOE RNA [4]; 82 nM, 5 days (Table 14)) | APOE RNA (% UTC) (human APOE RNA [4]; 205 nM, 5 days (Table 14)) | also measured
1778111: modified oligonucleotide complementary to human APOE RNA (eA*e[5mC]eTeTeG*kG*dT*dG[ms]dA[ms]dA*dT*d[5mC]*dT*dT*dT*dA[ms]eTeT*eA*eA; antisense) [compound 1778111] | 106 | 88 | 91 | 77 | 62 | 43 | 32 | 21 | 14 | 8 | 440 | 34 | 53 | 41 | 17 | 67 | 68 | 41 | 41 | 32 | APOE RNA (% UTC) (human APOE RNA [4]; 512 nM, 5 days (Table 14)): 62 % UTC; APOE RNA (% UTC) (human APOE RNA [4]; 1,280 nM, 5 days (Table 14)): 59 % UTC; APOE RNA (% UTC) (human APOE RNA [4]; 3,200 nM, 5 days (Table 14)): 43 % UTC; APOE RNA (% UTC) (human APOE RNA [4]; 8,000 nM, 5 days (Table 14)): 25 % UTC; APOE RNA (% UTC) (human APOE RNA [4]; 20,000 nM, 5 days (Table 14)): 17 % UTC; IC50 (human APOE RNA [4]; 5 days (Table 14)): 110 nM
1785599: modified oligonucleotide complementary to human APOE RNA (k[5mC]*kT*kT*dG[ms]dG[ms]dT[ms]dG[ms]dA[ms]dA[ms]dT[ms]d[5mC]*dT*dT*dT*dA*dT*kT*kA*dA[ms]kA; antisense) [compound 1785599] | 100 | 106 | 93 | 81 | 71 | 43 | 32 | 18 | 10 | 15 | 510 | 32 | 38 | 26 | 34 | 77 | 61 | 72 | 60 | 46 | APOE RNA (% UTC) (human APOE RNA [4]; 512 nM, 5 days (Table 14)): 20 % UTC; APOE RNA (% UTC) (human APOE RNA [4]; 1,280 nM, 5 days (Table 14)): 21 % UTC; APOE RNA (% UTC) (human APOE RNA [4]; 3,200 nM, 5 days (Table 14)): 17 % UTC; APOE RNA (% UTC) (human APOE RNA [4]; 8,000 nM, 5 days (Table 14)): 12 % UTC; APOE RNA (% UTC) (human APOE RNA [4]; 20,000 nM, 5 days (Table 14)): 6 % UTC; IC50 (human APOE RNA [4]; 5 days (Table 14)): 100 nM
1778128: modified oligonucleotide complementary to human APOE RNA (eA*e[5mC]eTeTkGkG*dT*dG[ms]dA[ms]dA*dT*d[5mC]*dT*dT*dT*dA[ms]kTeT*eA*eA; antisense) [compound 1778128] | 96 | 95 | 83 | 67 | 60 | 37 | 24 | 25 | 22 | 14 | 350 | 31 | 40 | 27 | 25 | 91 | 51 | 99 | 63 | 74 | APOE RNA (% UTC) (human APOE RNA [4]; 512 nM, 5 days (Table 14)): 32 % UTC; APOE RNA (% UTC) (human APOE RNA [4]; 1,280 nM, 5 days (Table 14)): 30 % UTC; APOE RNA (% UTC) (human APOE RNA [4]; 3,200 nM, 5 days (Table 14)): 40 % UTC; APOE RNA (% UTC) (human APOE RNA [4]; 8,000 nM, 5 days (Table 14)): 33 % UTC; APOE RNA (% UTC) (human APOE RNA [4]; 20,000 nM, 5 days (Table 14)): 23 % UTC; IC50 (human APOE RNA [4]; 5 days (Table 14)): 530 nM
^mCksTksTksGdzGdzTdzGdzAdzAdzTds^mCdsTdsTdsTdsAdsTdsTksAksAdzAk (antisense k[5mC]*kT*kT*dG[ms]dG[ms]dT[ms]dG[ms]dA[ms]dA[ms]dT*d[5mC]*dT*dT*dT*dA*dT*kT*kA*dA[ms]kA) [Compound No. 1785602] | 97 | 91 | 85 | 70 | 56 | 36 | 33 | 8 | 21 | 3 | 300 | 34 | 33 | 27 | 26 | 84 | 106 | 83 | 69 | 42 | reduction of human APOE RNA in the cortex (human APOE RNA [3]; APOE knock-in mouse model, 8 weeks post administration, assay of Example 11): 73%; APOE RNA (% UTC) (human APOE RNA [4]; 5 nM, 5 days (Table 13)): 74 % UTC; APOE RNA (% UTC) (human APOE RNA [4]; 13 nM, 5 days (Table 13)): 60 % UTC; APOE RNA (% UTC) (human APOE RNA [4]; 33 nM, 5 days (Table 13)): 64 % UTC; APOE RNA (% UTC) (human APOE RNA [4]; 82 nM, 5 days (Table 13)): 49 % UTC; APOE RNA (% UTC) (human APOE RNA [4]; 205 nM, 5 days (Table 13)): 40 % UTC; APOE RNA (% UTC) (human APOE RNA [4]; 512 nM, 5 days (Table 13)): 30 % UTC; APOE RNA (% UTC) (human APOE RNA [4]; 512 nM, 5 days (Table 14)): 32 % UTC; APOE RNA (% UTC) (human APOE RNA [4]; 1,280 nM, 5 days (Table 13)): 36 % UTC; APOE RNA (% UTC) (human APOE RNA [4]; 1,280 nM, 5 days (Table 14)): 26 % UTC; APOE RNA (% UTC) (human APOE RNA [4]; 3,200 nM, 5 days (Table 13)): 32 % UTC; APOE RNA (% UTC) (human APOE RNA [4]; 3,200 nM, 5 days (Table 14)): 19 % UTC; APOE RNA (% UTC) (human APOE RNA [4]; 8,000 nM, 5 days (Table 13)): 15 % UTC; APOE RNA (% UTC) (human APOE RNA [4]; 8,000 nM, 5 days (Table 14)): 10 % UTC; APOE RNA (% UTC) (human APOE RNA [4]; 20,000 nM, 5 days (Table 13)): 6 % UTC; APOE RNA (% UTC) (human APOE RNA [4]; 20,000 nM, 5 days (Table 14)): 8 % UTC; IC50 (human APOE RNA [4]; 5 days (Table 13)): 90 nM; IC50 (human APOE RNA [4]; 5 days (Table 14)): 230 nM
1785617: modified oligonucleotide complementary to human APOE RNA (k[5mC]*dT[ms]dT[ms]kG*dG[ms]kT*dG[ms]dA[ms]dA[ms]dT[ms]d[5mC]*dT*dT*dT*dA*dT*kT*kA*dA[ms]kA; antisense) [compound 1785617] | 95 | 93 | 82 | 68 | 55 | 32 | 23 | 16 | 20 | 6 | 260 | 39 | 38 | 30 | 213 | 118 | 116 | 84 | 71 | 59 | APOE RNA (% UTC) (human APOE RNA [4]; 512 nM, 5 days (Table 14)): 56 % UTC; APOE RNA (% UTC) (human APOE RNA [4]; 1,280 nM, 5 days (Table 14)): 29 % UTC; APOE RNA (% UTC) (human APOE RNA [4]; 3,200 nM, 5 days (Table 14)): 21 % UTC; APOE RNA (% UTC) (human APOE RNA [4]; 8,000 nM, 5 days (Table 14)): 22 % UTC; APOE RNA (% UTC) (human APOE RNA [4]; 20,000 nM, 5 days (Table 14)): 10 % UTC; IC50 (human APOE RNA [4]; 5 days (Table 14)): 520 nM
